Laboratory results as given in ChEMBL document CHEMBL1201862, “PubChem BioAssay data set” (2004).
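A five-concentration, 48-hour dose response in 96-well plates underlies each endpoint, interpolated linearly between surrounding concentrations. At the GI50, growth is halved.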 Activity calls are given as the source filed them. Rule as the data show it: active = GI50 up to about 1.1 µM and inactive = higher.

Legend:
Assay in all cases: NCI anticancer screen, dose series, 48 h
HCT-116 = tested on: HCT-116
SF-539 = tested on: SF-539
U-251 = tested on: U-251
TK-10 = tested on: TK-10
OVCAR-8 = tested on: OVCAR-8
NCI-H460 = tested on: NCI-H460
RPMI-8226 = tested on: RPMI-8226
MCF7 = tested on: MCF7
HCT-15 = tested on: HCT-15
UACC-62 = tested on: UACC-62
SNB-19 = tested on: SNB-19
SN12C = tested on: SN12C
SF-295 = tested on: SF-295
SW-620 = tested on: SW-620
HCC 2998 = tested on: HCC 2998
SR = tested on: SR
NCI-H23 = tested on: NCI-H23
OVCAR-5 = tested on: OVCAR-5
CCRF-CEM = tested on: CCRF-CEM
MDA-N = tested on: MDA-N
HOP-92 = tested on: HOP-92
A498 = tested on: A498
KM12 = tested on: KM12
MDA-MB-435 = tested on: MDA-MB-435
MDA-MB-231 = tested on: MDA-MB-231
SK-MEL-5 = tested on: SK-MEL-5
ACHN = tested on: ACHN
SK-MEL-2 = tested on: SK-MEL-2
BT-549 = tested on: BT-549
LOX IMVI = tested on: LOX IMVI
OVCAR-4 = tested on: OVCAR-4
COLO 205 = tested on: COLO 205
IGROV-1 = tested on: IGROV-1
HOP-62 = tested on: HOP-62
SNB-75 = tested on: SNB-75
UO-31 = tested on: UO-31
T47D = tested on: T47D
NCI/ADR-RES = tested on: NCI/ADR-RES
CAKI-1 = tested on: CAKI-1
PC-3 = tested on: PC-3
UACC-257 = tested on: UACC-257
NCI-H522 = tested on: NCI-H522
Hs-578T = tested on: Hs-578T
M14 = tested on: M14
DU-145 = tested on: DU-145
OVCAR-3 = tested on: OVCAR-3
786-0 = tested on: 786-0
EKVX = tested on: EKVX
Malme-3M = tested on: Malme-3M
HT-29 = tested on: HT-29
MOLT-4 = tested on: MOLT-4
SK-MEL-28 = tested on: SK-MEL-28
SF-268 = tested on: SF-268
A549 = tested on: A549
HL-60 = tested on: HL-60

For OCC1OC(n2cnc3c2N=CNC[C@H]3O)C(Cl)C1O (stereo not given in full), the GI50 (HCT-116) was > 100 µM (inactive), the GI50 (SF-539) was > 100 µM (inactive) and the GI50 (U-251) was > 100 µM (inactive). The GI50 (TK-10) was > 100 µM (inactive), the GI50 (OVCAR-8) was > 100 µM (inactive) and the GI50 (NCI-H460) was > 100 µM (inactive). For the same compound, the GI50 (RPMI-8226) was > 100 µM (inactive), the GI50 (MCF7) was > 100 µM (inactive) and the GI50 (HCT-15) was over 100 µM. For the same compound, the GI50 (UACC-62) was > 100 µM (inactive), the GI50 (SNB-19) was > 100 µM (inactive) and the GI50 (SN12C) was > 100 µM (inactive). The GI50 (SF-295) was > 100 µM (inactive), the GI50 (SW-620) was > 100 µM (inactive) and the GI50 (HCC 2998) was > 100 µM (inactive). The GI50 (SR) was > 100 µM (inactive), the GI50 (NCI-H23) was > 100 µM (inactive) and the GI50 (OVCAR-5) was > 100 µM (inactive). For the same compound, the GI50 (CCRF-CEM) was > 100 µM (inactive), the GI50 (MDA-N) was > 100 µM (inactive) and the GI50 (HOP-92) was > 100 µM (inactive). The GI50 (A498) was > 100 µM (inactive), the GI50 (KM12) was > 100 µM (inactive) and the GI50 (MDA-MB-435) was > 100 µM (inactive). For the same compound, the GI50 (MDA-MB-231) was > 100 µM (inactive), the GI50 (SK-MEL-5) was > 100 µM (inactive) and the GI50 (ACHN) was > 100 µM (inactive). The GI50 (SK-MEL-2) was > 100 µM (inactive), the GI50 (BT-549) was > 100 µM (inactive) and the GI50 (LOX IMVI) was > 100 µM (inactive). For the same compound, the GI50 (OVCAR-4) was > 100 µM (inactive), the GI50 (COLO 205) was > 100 µM (inactive) and the GI50 (IGROV-1) was > 100 µM (inactive). The GI50 (HOP-62) was > 100 µM (inactive), the GI50 (SNB-75) was > 100 µM (inactive) and the GI50 (UO-31) was > 100 µM (inactive). The GI50 (T47D) was > 100 µM (inactive), the GI50 (NCI/ADR-RES) was > 100 µM (inactive) and the GI50 (CAKI-1) was > 100 µM (inactive). For the same compound, the GI50 (PC-3) was > 100 µM (inactive), the GI50 (UACC-257) was > 100 µM (inactive) and the GI50 (NCI-H522) was > 100 µM (inactive). For the same compound, the GI50 (Hs-578T) was > 100 µM (inactive), the GI50 (M14) was > 100 µM (inactive) and the GI50 (DU-145) was > 100 µM (inactive). The GI50 (OVCAR-3) was > 100 µM (inactive), the GI50 (786-0) was > 100 µM (inactive) and the GI50 (EKVX) was > 100 µM (inactive). For the same compound, the GI50 (Malme-3M) was > 100 µM (inactive), the GI50 (HT-29) was > 100 µM (inactive) and the GI50 (MOLT-4) was 94.2 µM (inactive). For the same compound, the GI50 (SK-MEL-28) was > 100 µM (inactive), the GI50 (SF-268) was > 100 µM (inactive) and the GI50 (A549) was > 100 µM (inactive). The GI50 (HL-60) was > 100 µM (inactive).
